Test results: patent US20250387359A1, “COMPOUNDS AND METHODS FOR THE TREATMENT OF PARASITIC INFECTIONS” (THE BOARD OF TRUSTEES OF THE UNIVERSITY OF ILLINOIS, priority 2019, published 2025)

Test system: C. parvum
Experiment: Real-time PCR quantification of C. parvum DNA in fecal samples of infected mice
Type: in vivo, Cryptosporidium parvum
Conditions: for fecal C. parvum DNA load: Table 6, infected mice, multiplier printed in next cell
Method: In vivo testing of the anti-Cryptosporidium effect of CpLDH inhibitors. Gamma interferon knockout mice (B6.129S7-Ifng), 8 weeks of age, were purchased from Charles River, USA. The care and use of the mice was done following the guidelines of protocol number 17024 approved by the University of Illinois at Urbana-Champaign, USA. The animals were allowed to acclimatize for 1 week before experiments commenced. Stock solutions of recombinant CpLDH inhibitors reconstituted in DMSO were diluted in sterile distilled water to reduce the final amount of DMSO in the solution to less than 1% (v/v) before administering them to mice. Prior to testing the anti-Cryptosporidium effect of the inhibitors in mice, the tolerability of each inhibitor was tested by oral gavage using varying dosages (100-2000 mg/kg body weight) of each inhibitor in groups of mice (three mice for each dose) daily for 7 days. Mice were observed daily for signs of toxicity including changes from normal physical activity, respiration, body temperature, feeding, posture, fur condition or occurrence of death. […] The subsequent dosages of NSC10447 used in the mice infection assays were 250, 500 and 1000 mg/kg mouse body weight, while the NSC158011 dosages used were 100, 200 and 400 mg/kg mouse body weight. Mice were allocated to groups as follows: “Infected plus inhibitor treatment”; “Infected minus inhibitor treatment”; “Uninfected minus inhibitor treatment” and “Infected plus paromomycin treatment”. Each group contained at least three mice. Each mouse in the infection groups received 5,000 C. parvum oocysts (resuspended in 50 μl of PBS) by oral gavage. Mice were housed individually in cages lined with sterile gauze as bedding. One day post-infection (PI), daily oral gavage administration of recombinant CpLDH inhibitor or paromomycin commenced and continued for a total of 7 days. Untreated mice received an equivalent volume of sterile distilled water (containing DMSO equivalent to the amount administered in the inhibitor-treated group) by oral gavage. Fecal pellets were collected daily from each cage and placed in individual sterile 15 ml conical tubes. An equivalent volume of PBS containing a cocktail of penicillin (100 units/ml), streptomycin (100 μg/ml), chloramphenicol (34 μg/ml) and amphotericin (0.25 μg/ml) was added to the fecal samples and stored at 4° C. until use for quantification of C. parvum genomic DNA load. Three independent replicate infection assays were performed. At 9 days PI, mice were euthanized and 5 cm of the distal small intestine resected 2 cm anterior to the cecum and immediately submerged in 4% buffered formalin. The intestinal tissues were submitted for histopathology to the Veterinary Diagnostic Laboratory at the University of Illinois at Urbana-Champaign. Briefly, intestinal tissues preserved in 4% buffered formalin were washed in 70% ethanol and embedded in 1% agar and then processed for paraffin embedding. For hematoxylin and eosin staining, five μm transverse and cross sections were cut and processed and stained following standard procedures of the Veterinary Diagnostic Laboratory. Sections were imaged using a Zeiss microscope and images captured with a color camera.
Quantification of C. parvum shed in mice feces. Genomic DNA was extracted from individual fecal samples collected from mice at different days as described above. For each sample, 220 mg of homogenized feces were used to extract genomic DNA using the QIAamp PowerFecal DNA Kit (Qiagen, USA) following the manufacturer's instructions. Quantification of the amount of C. parvum 18s rRNA gene (GenBank accession number AF164102) was performed essentially as described previously (Int. J. Parasitol. 2018; 48(8), 649-656). Briefly, primers were used to generate a 240 bp amplicon from C. parvum genomic DNA by conventional PCR. […]

Structure (SMILES): O=C1c2ccccc2C(=O)c2c(O)c(O)cc(O)c21 [NSC10447]
- lower C. parvum DNA load in feces compared to infected untreated (NSC10447 at 250, 500 and 1000 mg/kg, day 3 until day 8): at least 50%
- fecal C. parvum DNA load (NSC10447 250 mg/kg, DPI 1): 4.4 ± 0.5 ×10^−10 ng/μL
- fecal C. parvum DNA load (NSC10447 250 mg/kg, DPI 2): 7.3 ± 0.2 ×10^−10 ng/μL
- fecal C. parvum DNA load (NSC10447 250 mg/kg, DPI 3): 1.0 ± 0.1 ×10^−8 ng/μL
- fecal C. parvum DNA load (NSC10447 250 mg/kg, DPI 4): 1.2 ± 0.1 ×10^−7 ng/μL
- fecal C. parvum DNA load (NSC10447 250 mg/kg, DPI 5): 1.2 ± 0.1 ×10^−6 ng/μL
- fecal C. parvum DNA load (NSC10447 250 mg/kg, DPI 6): 4.8 ± 0.2 ×10^−6 ng/μL
- fecal C. parvum DNA load (NSC10447 250 mg/kg, DPI 7): 1.9 ± 0.2 ×10^−5 ng/μL
- fecal C. parvum DNA load (NSC10447 250 mg/kg, DPI 8): 4.7 ± 0.1 ×10^−5 ng/μL
- fecal C. parvum DNA load (NSC10447 500 mg/kg, DPI 1): 1.0 ± 0.5 ×10^−10 ng/μL
- fecal C. parvum DNA load (NSC10447 500 mg/kg, DPI 2): 9.4 ± 0.2 ×10^−10 ng/μL
- fecal C. parvum DNA load (NSC10447 500 mg/kg, DPI 3): 6.7 ± 0.6 ×10^−9 ng/μL
- fecal C. parvum DNA load (NSC10447 500 mg/kg, DPI 4): 1.4 ± 0.1 ×10^−7 ng/μL
- fecal C. parvum DNA load (NSC10447 500 mg/kg, DPI 5): 1.6 ± 0.1 ×10^−6 ng/μL
- fecal C. parvum DNA load (NSC10447 500 mg/kg, DPI 6): 5.9 ± 0.4 ×10^−6 ng/μL
- fecal C. parvum DNA load (NSC10447 500 mg/kg, DPI 7): 9.3 ± 0.2 ×10^−6 ng/μL
- fecal C. parvum DNA load (NSC10447 500 mg/kg, DPI 8): 3.0 ± 0.4 ×10^−5 ng/μL
- fecal C. parvum DNA load (NSC10447 1000 mg/kg, DPI 1): 1.2 ± 0.2 ×10^−9 ng/μL
- fecal C. parvum DNA load (NSC10447 1000 mg/kg, DPI 2): 3.0 ± 0.7 ×10^−9 ng/μL
- fecal C. parvum DNA load (NSC10447 1000 mg/kg, DPI 3): 6.4 ± 0.2 ×10^−9 ng/μL
- fecal C. parvum DNA load (NSC10447 1000 mg/kg, DPI 4): 1.1 ± 0.1 ×10^−7 ng/μL
- fecal C. parvum DNA load (NSC10447 1000 mg/kg, DPI 5): 1.3 ± 0.1 ×10^−6 ng/μL
- fecal C. parvum DNA load (NSC10447 1000 mg/kg, DPI 6): 5.6 ± 0.4 ×10^−6 ng/μL
- fecal C. parvum DNA load (NSC10447 1000 mg/kg, DPI 7): 6.3 ± 0.4 ×10^−6 ng/μL
- fecal C. parvum DNA load (NSC10447 1000 mg/kg, DPI 8): 1.2 ± 0.8 ×10^−6 ng/μL
